The results in this text go back to patent US9617289B2, “RSV antiviral compounds” (JANSSEN R&D IRELAND, priority 2012, dated 2017).

The subject of this test is rgRSV224 virus. The experiment in a line: Antiviral activity: inhibition of rgRSV224 (GFP-expressing RSV) replication in HeLa cells. In kind it is cell-based, respiratory syncytial virus. The following applies: human respiratory syncytial virus, HeLa, 72 h. Here is the method: Black 96-well clear-bottom microtiter plates (Corning, Amsterdam, The Netherlands) were filled in duplicate using a customized robot system with serial 4-fold dilutions of compound in a final volume of 50 μl culture medium [RPMI medium without phenol red, 10% FBS, 0.04% gentamycin (50 mg/ml) and 0.5% DMSO]. Then, 100 μl of a HeLa cell suspension (5×10^4 cells/ml) in culture medium was added to each well followed by the addition of 50 μl rgRSV224 (MOI=0.02) virus in culture medium using a multidrop dispenser (Thermo Scientific, Erembodegem, Belgium). rgRSV224 virus is an engineered virus that includes an additional GFP gene (Hallak et al, 2000) and was in-licensed from the NIH (Bethesda, Md., USA). Medium, virus- and mock-infected controls were included in each test. Cells were incubated at 37° C. in a 5% CO2 atmosphere. Three days post-virus exposure, viral replication was quantified by measuring GFP expression in the cells by a MSM laser microscope (Tibotec, Beerse, Belgium). The EC50 was defined as the 50% inhibitory concentration for GFP expression. In parallel, compounds were incubated for three days in a set of white 96-well microtitier plates (Corning) and the cytotoxicity of compounds in HeLa cells was determined by measuring the ATP content of the cells using the ATPlite kit (PerkinElmer, Zaventem, Belgium) according to the manufacturer's instructions. The CC50 was defined as the 50% concentration for cytotoxicity. SI is calculated as CC50/EC50.

The mark [1] stands for this setting: read-out: pEC50, rgRSV224 (MOI=0.02) in HeLa cells, GFP expression three days post-virus exposure (converted).

Where two headings read alike, the source gives them in different places.

In the case of `N#CCCCn1c(CN2C(=O)C3(CN(C(=O)[C@@H](O)CO)C3)c3ccccc32)cc2cc(Cl)ccc21` (single isomer, unassigned) [Compound 129], the EC50 (read-out: RSV-wt_pEC50, rgRSV224 (MOI=0.02) in HeLa cells, GFP expression three days post-virus exposure) is 0.355 nM.
`CC(C)(C)OC(=O)N1CCC2(CC1)C(=O)N(Cc1cc3cc(Cl)ccc3n1CCCS(C)(=O)=O)c1cnccc12` [Compound 1, tert-butyl 1′-({5-chloro-1-[3-(methylsulfonyl)propyl]-1H-indol-2-yl}methyl)-2′-oxo-1′,2′-dihydro-1H-spiro [piperidine-4,3′-pyrrolo[2,3-c]pyridine]-1-carboxylate]: the EC50 under setting [1] is 0.631 nM.
Still for that read-out and setting: to `CS(=O)(=O)CCCn1c(CN2C(=O)C3(CCNCC3)c3ccncc32)cc2cc(Cl)ccc21` [Compound 2, 1′-({5-chloro-1-[3-(methylsulfonyl)propyl]-1H-indol-2-yl}methyl)spiro[piperidine-4,3′-pyrrolo[2,3-c]pyridin]-2′(1′H)-one] belongs 50.1 nM.
Same read-out and setting: the figure for `CS(=O)(=O)CCCn1c(CN2C(=O)C3(CCN(S(C)(=O)=O)CC3)c3ccncc32)cc2cc(Cl)ccc21` [Compound 3, 1′-({5-chloro-1-[3-(methylsulfonyl)propyl]-1H-indol-2-yl}methyl)-1-(methylsulfonyl)spiro[piperidine-4,3′-pyrrolo[2,3-c]pyridin]-2′(1′H)-one] is 0.0316 nM; for `CC(C)(C)OC(=O)N1CC2(C1)C(=O)N(Cc1nc3cc(Cl)ccc3n1CCCS(C)(=O)=O)c1ccccc12` [Compound 4, tert-butyl 1′-({5-chloro-1-[3-(methylsulfonyl)propyl]-1H-benzimidazol-2-yl}methyl)-2′-oxo-1′,2′-dihydro-1H-spiro[azetidine-3,3′-indole]-1-carboxylate] it is 0.0794 nM.
For the compound `CS(=O)(=O)CCCn1c(CN2C(=O)C3(CNC3)c3ccccc32)nc2cc(Cl)ccc21` [Compound 5, 1′-({5-chloro-1-[3-(methylsulfonyl)propyl]-1H-benzimidazol-2-yl}methyl)spiro[azetidine-3,3′-indol]-2′(1′H)-one], the EC50 under setting [1] is 5.01 nM.
In the case of `CC(C)(O)C(=O)N1CC2(C1)C(=O)N(Cc1nc3cc(Cl)ccc3n1CCCS(C)(=O)=O)c1ccccc12` [Compound 6, 1′-({5-chloro-1-[3-(methylsulfonyl)propyl]-1H-benzimidazol-2-yl}methyl)-1-(2-hydroxy-2-methylpropanoyl)spiro[azetidine-3,3′-indol]-2′(1′H)-one], the EC50 under setting [1] was 0.501 nM.
The same measure, in the same setting: the figure for `CS(=O)(=O)CCCn1c(CN2C(=O)C3(CN(c4cccnc4)C3)c3ccccc32)nc2cc(Cl)ccc21` [Compound 7, 1′-({5-chloro-1-[3-(methylsulfonyl)propyl]-1H-benzimidazol-2-yl}methyl)-1-(pyridin-3-yl)spiro[azetidine-3,3′-indol]-2′(1′H)-one] is 0.0251 nM; for `CC(C)(O)CN1CC2(C1)C(=O)N(Cc1nc3cc(Cl)ccc3n1CCCS(C)(=O)=O)c1ccccc12` [Compound 8, 1′-({5-chloro-1-[3-(methylsulfonyl)propyl]-1H-benzimidazol-2-yl}methyl)-1-(2-hydroxy-2-methylpropyl)spiro[azetidine-3,3′-indol]-2′(1′H)-one] it is 0.794 nM.
On the same count and under the same terms, the figure for `CS(=O)(=O)CCCn1c(CN2C(=O)C3(CCN(S(=O)(=O)c4ccc5nccnc5c4)CC3)c3ccncc32)nc2cc(Cl)ccc21` [Compound 13, 1′-((5-chloro-1-(3-(methylsulfonyl)propyl)-1H-benzo[d]-imidazol-2-yl)methyl)-1-(quinoxalin-6-ylsulfonyl)spiro-[piperidine-4,3′-pyrrolo[2,3-c]pyridin]-2′(1′H)-one] is 0.0501 nM; for `CC(C)(C)OC(=O)N1CCC2(CC1)C(=O)N(Cc1nc3cc(Cl)ccc3n1CCCS(C)(=O)=O)c1cnccc12` [Compound 14, tert-butyl 1′-((5-chloro-1-(3-(methylsulfonyl)propyl)-1H-benzo[d]imidazol-2-yl)methyl)-2′-oxo-1′,2′-dihydrospiro-[piperidine-4,3′-pyrrolo[2,3-c]pyridine]-1-carboxylate] it is less than 0.158 nM; for `CS(=O)(=O)CCCn1c(CN2C(=O)C3(CCN(c4ccc(Cl)nn4)CC3)c3ccccc32)nc2cc(Cl)ccc21` [Compound 15, 1-((5-chloro-1-(3-(methylsulfonyl)propyl)-1H-benzo[d]-imidazol-2-yl)methyl)-1′-(6-chloropyridazin-3-yl)spiro-[indoline-3,4′-piperidin]-2-one] it is less than 0.158 nM.
As for `CS(=O)(=O)CCCn1c(CN2C(=O)C3(CCN(S(=O)(=O)c4ccc5nccnc5c4)CC3)c3ccccc32)nc2cc(Cl)ccc21` [Compound 16, 1-((5-chloro-1-(3-(methylsulfonyl)propyl)-1H-benzo[d]-imidazol-2-yl)methyl)-1′-(quinoxalin-6-ylsulfonyl)spiro-[indoline-3,4′-piperidin]-2-one], the EC50 under setting [1] was less than 0.158 nM.
On the same count and under the same terms, to `CC(C)(C)OC(=O)N1CCC2(CC1)C(=O)N(Cc1nc3cc(Br)ccc3n1CCCS(C)(=O)=O)c1ccccc12` [Compound 17, tert-butyl 1-((5-bromo-1-(3-(methylsulfonyl)propyl)-1H-benzo[d]imidazol-2-yl)methyl)-2-oxospiro[indoline-3,4′-piperidine]-1′-carboxylate] belongs 0.316 nM.
The same measure, in the same setting: the figure for `CS(=O)(=O)CCCn1c(CN2C(=O)C3(CCN(S(=O)(=O)c4ccc(C#N)cc4)CC3)c3ccccc32)nc2cc(Cl)ccc21` [Compound 18, 4-(1-((5-chloro-1-(3-(methylsulfonyl)propyl)-1H-benzo[d]-imidazol-2-yl)methyl)-2-oxospiro[indoline-3,4′-piperidine]-1′-ylsulfonyl) benzonitrile] is 1.26 nM.
Still for that read-out and setting: the figure for `CS(=O)(=O)CCCn1c(CN2C(=O)C3(CCOCC3)c3cc(F)ccc32)nc2cc(Cl)ccc21` [Compound 19] is 3.98 nM; for `CS(=O)(=O)CCCn1c(CN2C(=O)C3(CCN(c4ccc(Cl)nn4)CC3)c3cc(Br)ccc32)nc2cc(Cl)ccc21` [Compound 20, 5-bromo-1-((5-chloro-1-(3-(methylsulfonyl)propyl)-1H-benzo[d]imidazol-2-yl)methyl)-1′-(6-chloropyridazin-3-yl)spiro[indoline-3,4′-piperidin]-2-one] it is 3.98 nM.
Take `CS(=O)(=O)CCCn1c(CN2C(=O)C3(CCNCC3)c3ccccc32)nc2cc(Cl)ccc21` [Compound 21, 1-((5-chloro-1-(3-(methylsulfonyl)propyl)-1H-benzo[d]-imidazol-2-yl)methyl)spiro[indoline-3,4′-piperidin]-2-one]: the EC50 under setting [1] is 5.01 nM.
As for `CS(=O)(=O)CCCn1c(CN2C(=O)C3(CCN(C(=O)c4ccncc4)CC3)c3cc(Br)ccc32)nc2cc(Cl)ccc21` [Compound 22, 5-bromo-1-((5-chloro-1-(3-(methylsulfonyl)propyl)-1H-benzo[d]imidazol-2-yl)methyl)-1′-isonicotinoylspiro-[indoline-3,4′-piperidin]-2-one], the EC50 under setting [1] is 7.94 nM.
Same read-out and setting: the figure for `CC(C)(C)OC(=O)N1CCC2(CC1)C(=O)N(Cc1nc3cc(Cl)ccc3n1CCCS(C)(=O)=O)c1ccc(Br)cc12` [Compound 23, tert-butyl 5-bromo-1-((5-chloro-1-(3-(methyl-sulfonyl)propyl)-1H-benzo[d]imidazol-2-yl)methyl)-2-oxospiro[indoline-3,4′-piperidine]-1′-carboxylate] is 7.94 nM.
